US10189859B2, “Derivatives of 6-(2,3-dichlorophenyl)-1,2,4-triazin-5-amine” (Nektar Therapeutics, priority 2013, dated 2019)
Where “and” joins values, the source holds several entries; their conditions need not be identical. Equal values may be shown once. Where a name gives a salt, the structure may show the parent alone. Read-outs that look alike come from different tables or passages of the source.

Legend:
[1] = Pharmacokinetics after intravenous or oral dosing, plasma LC/MS/MS; type: in vivo; conditions: fasted male Sprague Dawley rats
Protocol: Fasted, male Sprague Dawley rats were dosed intravenously or orally. Blood samples were collected at pre-determined time points and plasma was separated. Test article concentrations were determined in plasma by a LC/MS/MS method. Non compartmental analysis was performed to estimate the area under the plasma concentration vs. time curve (AUC). Clearance parameters (CL), bioavailabilities (F) and half-lives were calculated.

[2] = biological target: Nav1.7 sodium channels (human SCN9A gene) (Homo sapiens (Human), UniProt Q15858); assay: Automated patch clamp (IonWorks Barracuda) of Nav1.7 stably expressed in CHO cells; type: cell-based
Protocol: The potencies of the compounds provided herein to block specific Na+ channels was measured using automated patch clamp electrophysiologically of Nav1.7 sodium channels (human SCN9A gene) stably expressed in CHO cells using the IonWorks™ Barracuda system. Currents were measured from the whole cell patch configuration. From a holding potential of −90 mV, membranes were subjected to a 200 ms pre-pulse to −120 mV, then pulsed to 0 mV to measure blockade of the tonic (resting) state. Inactivated state block was elicited by repolarization to −100 mV (20 ms pulse duration), followed by depolarization to 0 mV (20 ms pulse duration). Peak inward Na+ currents were measured in the presence of vehicle or various concentrations of the test compound to determine the percent block of current. Concentration-response relationships were used to calculate IC50 values for the illustrative compounds.

[3] = read-out: Inactivated state IC50
[4] = inactivated state block, CHO cells, read-out: Inactivated state IC50
[5] = tonic (resting) state block, CHO cells, read-out: Tonic state IC50

Sequence of Nav1.7 sodium channels (human SCN9A gene) (Q15858 whole entry): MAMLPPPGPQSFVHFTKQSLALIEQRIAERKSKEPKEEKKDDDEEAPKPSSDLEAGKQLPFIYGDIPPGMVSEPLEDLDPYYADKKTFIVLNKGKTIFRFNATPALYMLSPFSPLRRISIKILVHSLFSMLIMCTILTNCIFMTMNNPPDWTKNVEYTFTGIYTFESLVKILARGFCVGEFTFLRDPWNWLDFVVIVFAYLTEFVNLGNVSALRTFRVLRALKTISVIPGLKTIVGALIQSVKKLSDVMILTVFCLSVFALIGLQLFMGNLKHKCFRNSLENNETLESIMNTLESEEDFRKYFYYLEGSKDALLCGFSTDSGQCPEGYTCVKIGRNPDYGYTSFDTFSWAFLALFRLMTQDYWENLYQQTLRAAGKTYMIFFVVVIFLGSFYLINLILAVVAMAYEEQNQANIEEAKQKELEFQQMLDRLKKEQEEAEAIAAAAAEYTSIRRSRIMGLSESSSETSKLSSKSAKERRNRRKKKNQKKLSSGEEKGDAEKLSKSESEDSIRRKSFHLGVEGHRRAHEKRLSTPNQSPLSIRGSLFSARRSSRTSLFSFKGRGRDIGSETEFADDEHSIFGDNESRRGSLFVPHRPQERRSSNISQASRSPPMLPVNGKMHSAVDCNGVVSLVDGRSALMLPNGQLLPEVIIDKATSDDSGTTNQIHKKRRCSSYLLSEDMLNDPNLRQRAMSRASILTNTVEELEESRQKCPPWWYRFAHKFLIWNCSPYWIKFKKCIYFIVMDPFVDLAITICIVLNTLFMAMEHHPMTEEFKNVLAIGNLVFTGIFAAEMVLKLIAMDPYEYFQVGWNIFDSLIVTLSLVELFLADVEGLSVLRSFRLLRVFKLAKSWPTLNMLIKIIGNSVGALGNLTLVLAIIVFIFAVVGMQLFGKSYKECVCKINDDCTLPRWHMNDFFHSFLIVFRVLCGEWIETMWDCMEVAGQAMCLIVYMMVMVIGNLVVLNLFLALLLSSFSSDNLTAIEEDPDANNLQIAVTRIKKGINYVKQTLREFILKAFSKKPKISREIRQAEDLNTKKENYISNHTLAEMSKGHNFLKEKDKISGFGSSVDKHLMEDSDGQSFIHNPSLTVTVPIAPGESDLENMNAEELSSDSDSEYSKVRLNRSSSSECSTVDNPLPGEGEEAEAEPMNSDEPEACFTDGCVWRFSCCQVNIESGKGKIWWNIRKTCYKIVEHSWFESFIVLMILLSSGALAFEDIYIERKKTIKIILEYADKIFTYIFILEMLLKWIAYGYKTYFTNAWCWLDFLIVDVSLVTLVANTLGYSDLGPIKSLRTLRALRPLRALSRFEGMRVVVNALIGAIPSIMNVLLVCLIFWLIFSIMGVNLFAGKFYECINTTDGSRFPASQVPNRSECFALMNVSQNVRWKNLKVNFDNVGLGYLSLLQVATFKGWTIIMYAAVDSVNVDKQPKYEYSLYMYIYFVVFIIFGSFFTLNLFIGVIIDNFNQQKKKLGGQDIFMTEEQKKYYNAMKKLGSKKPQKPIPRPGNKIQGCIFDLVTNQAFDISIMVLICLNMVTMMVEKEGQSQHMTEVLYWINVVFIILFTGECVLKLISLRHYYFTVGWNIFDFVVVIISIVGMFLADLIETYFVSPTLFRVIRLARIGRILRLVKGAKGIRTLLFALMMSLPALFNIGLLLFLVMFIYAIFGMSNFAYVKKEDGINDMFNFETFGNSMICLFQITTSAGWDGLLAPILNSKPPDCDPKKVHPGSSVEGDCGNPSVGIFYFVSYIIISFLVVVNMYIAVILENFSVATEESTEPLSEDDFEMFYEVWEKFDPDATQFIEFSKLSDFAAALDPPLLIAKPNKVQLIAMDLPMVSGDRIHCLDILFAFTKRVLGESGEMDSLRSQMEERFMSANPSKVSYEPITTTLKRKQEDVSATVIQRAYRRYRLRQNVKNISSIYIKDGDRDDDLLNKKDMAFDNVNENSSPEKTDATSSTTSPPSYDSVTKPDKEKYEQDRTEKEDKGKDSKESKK

In the case of `COCCOCC(C)(CO)Nc1nnc(-c2cccc(Cl)c2Cl)c(N)n1` (stereo not drawn) [Compound 49, 2-((5-Amino-6-(2,3-dichlorophenyl)-1,2,4-triazin-3-yl)amino)-3-(2-methoxyethoxy)-2-methylpropan-1-ol], the “exposure after oral dosing (qualitative ranking)” value (from here on “exposure after oral dosing”) [1] is reported as “best exposure after oral dosing”.

For `Nc1nc(N2CC(OCC(F)(F)F)C2)nnc1-c1cccc(Cl)c1Cl` [Compound 99, 6-(2,3-dichlorophenyl)-3-(3-(2,2,2-trifluoroethoxy)azetidin-1-yl)-1,2,4-triazin-5-amine.HCl salt], the “exposure after oral dosing” value [1] was “best exposure after oral dosing”.

With `CC(C)(CO)N1CCN(c2nnc(-c3cccc(Cl)c3Cl)c(N)n2)CC1` [Compound 90, 2-(4-(5-amino-6-(2,3-dichlorophenyl)-1,2,4-triazin-3-yl)piperazin-1-yl)-2-methylpropan-1-ol] the IC50 [2, 3] was 56.2 µM, the IC50 ([2]; read-out: Tonic state IC50) was 183 µM and the “exposure after oral dosing” value [1] was “best exposure after oral dosing”.

For `Nc1nc(N2CC(O)(C(F)(F)F)C2)nnc1-c1cccc(Cl)c1Cl` [Compound 165, 3-N-(3-hydroxy-3-trifluoromethyl)azetidinyl lamotrigine], the “exposure after oral dosing” value [1] was “best exposure after oral dosing”.

In the case of `Nc1nc(N2CCN(CC(O)COC(F)(F)F)CC2)nnc1-c1cccc(Cl)c1Cl` (stereo not drawn) [Compound 27, 1-(4-(5-Amino-6-(2,3-dichlorophenyl)-1,2,4-triazin-3-yl)piperazin-1-yl)-3-(trifluoromethoxy)propan-2-ol], the “pharmacokinetics (qualitative ranking of the compounds tested)” value (“pharmacokinetics” for short) [1] is reported as “most favorable pharmacokinetics” and the “exposure after oral dosing” value [1] is reported as “best exposure after oral dosing”.

For `Nc1nc(N2CCN(C3CCOCC3)CC2)nnc1-c1cccc(Cl)c1Cl` [Compound 120, 3-N-(4-(tetrahydro-2H-pyran-4-yl)piperazin-1-yl) lamotrigine di HCl], the “pharmacokinetics” value [1] was “most favorable pharmacokinetics” and the “exposure after oral dosing” value [1] was “best exposure after oral dosing”.

For `C[C@@H]1CN(c2nnc(-c3cccc(Cl)c3Cl)c(N)n2)C[C@H](C)N1` [Compound 118, 3-N-(3′,5′-dimethylpiperazin-1-yl) lamotrigine], the “exposure after oral dosing” value [1] was “best exposure after oral dosing”.

In the case of `Nc1nc(NCCOCCOCCOC(F)F)nnc1-c1cccc(Cl)c1Cl` [Compound 57, 6-(2,3-Dichlorophenyl)-N^3-(2-(2-(2-(difluoromethoxy)ethoxy)ethoxy)ethyl)-1,2,4-triazine-3,5-diamine], the “exposure after oral dosing” value [1] is reported as “best exposure after oral dosing”.

With `COC[C@@H](O)CN1CCN(c2nnc(-c3cccc(Cl)c3Cl)c(N)n2)CC1` [Compound 98, (S)-1-(4-(5-amino-6-(2,3-dichlorophenyl)-1,2,4-triazin-3-yl)piperazin-1-yl)-3-methoxypropan-2-ol] the IC50 [2, 3] was 57.5 µM and < 50 µM, the IC50 ([2]; read-out: Tonic state IC50) was greater than 200 µM and the “exposure after oral dosing” value [1] was “best exposure after oral dosing”.

For `Nc1nc(N2CC(N)C2)nnc1-c1cccc(Cl)c1Cl` [Compound 126, 5-amino-3-N-(3-aminoazetidinyl) lamotrigine diHCl salt], the “exposure after oral dosing” value [1] was “best exposure after oral dosing”.

With `Nc1nc(N2CCN3C(=O)OC[C@@H]3C2)nnc1-c1cccc(Cl)c1Cl` [Compound 128, (S)-7-(5-amino-6-(2,3-dichlorophenyl)-1,2,4-triazin-3-yl)tetrahydro-1H-oxazolo[3,4-a]pyrazin-3(5H)-one HCl salt] the IC50 [2, 3] was greater than 300 µM, the IC50 ([2]; read-out: Tonic state IC50) was greater than 200 µM and the “pharmacokinetics” value [1] was “most favorable pharmacokinetics”. For the same compound, the “exposure after oral dosing” value [1] was “best exposure after oral dosing”.

In the case of `CC(CO)N1CCN(c2nnc(-c3cccc(Cl)c3Cl)c(N)n2)CC1` (stereo not drawn) [Compound 89, 2-(4-(5-amino-6-(2,3-dichlorophenyl)-1,2,4-triazin-3-yl)piperazin-1-yl)propan-1-ol], the IC50 [2, 4] is reported as 66.6 µM, the IC50 [2, 5] is reported as greater than 200 µM and the “exposure after oral dosing” value [1] is reported as “best exposure after oral dosing”.

For `C[C@@H]1CN(c2nnc(-c3cc(F)cc(Cl)c3Cl)c(N)n2)C[C@H](C)N1` [Compound 119, 3-N-(3′,5′-dimethylpiperazin-1-yl) 5′-fluoro lamotrigine], the “exposure after oral dosing” value [1] was “best exposure after oral dosing”.

With `COCCOCCOCC(C)Nc1nnc(-c2cccc(Cl)c2Cl)c(N)n1` (stereo not drawn) [Compound 188, 6-(2,3-dichlorophenyl)-N3-(1-(2-(2-methoxyethoxy)ethoxy)propan-2-yl)-1,2,4-triazine-3,5-diamine.HCl] the “exposure after oral dosing” value [1] was “best exposure after oral dosing”.

With `Nc1nc(N2CCN(C[C@@H](O)COCC(F)(F)F)CC2)nnc1-c1cccc(Cl)c1Cl` [Compound 94, (R)-1-(4-(5-amino-6-(2,3-dichlorophenyl)-1,2,4-triazin-3-yl)-piperazin-1-yl)-3-(2,2,2-trifluoroethoxy)-propan-2-ol] the “pharmacokinetics” value [1] was “most favorable pharmacokinetics” and the “exposure after oral dosing” value [1] was “best exposure after oral dosing”.

In the case of `Nc1nc(N2CC(O)C2)nnc1-c1cccc(Cl)c1Cl` [Compound 129, 3-N-(3-hydroxyazetin-1-yl) lamotrigine], the “pharmacokinetics” value [1] is reported as “most favorable pharmacokinetics” and the “exposure after oral dosing” value [1] is reported as “best exposure after oral dosing”.

With `Nc1nc(N2CCN(CC(O)CO)CC2)nnc1-c1cccc(Cl)c1Cl` (stereo not drawn) [Compound 92, 3-(4-(5-amino-6-(2,3-dichlorophenyl)-1,2,4-triazin-3-yl)piperazin-1-yl)propane-1,2-diol] the IC50 [2, 4] was greater than 300 µM, the IC50 [2, 5] was greater than 200 µM and the “exposure after oral dosing” value [1] was “best exposure after oral dosing”.

For `COC[C@@H](O)COC1CN(c2nnc(-c3cccc(Cl)c3Cl)c(N)n2)C1` [Compound 75, (R)-1-((1-(5-Amino-6-(2,3-dichlorophenyl)-1,2,4-triazin-3-yl)azetidin-3-yl)oxy)-3-methoxypropan-2-ol], the “pharmacokinetics” value [1] was “most favorable pharmacokinetics” and the “exposure after oral dosing” value [1] was “best exposure after oral dosing”.

For `CC(CO)(CO)Nc1nnc(-c2cccc(Cl)c2Cl)c(N)n1` [Compound 47, 2-((5-Amino-6-(2,3-dichlorophenyl)-1,2,4-triazin-3-yl)amino)-2-methylpropane-1,3-diol], the “exposure after oral dosing” value [1] was “best exposure after oral dosing”.

With `CC(CO)Nc1nnc(-c2cccc(Cl)c2Cl)c(N)n1` (stereo not drawn) [Compound 182, 2-((5-amino-6-(2,3-dichlorophenyl)-1,2,4-triazin-3-yl)amino)propan-1-ol] the “exposure after oral dosing” value [1] was “best exposure after oral dosing”.

With `COC(=O)[C@@H]1C[C@@H](O)CN1c1nnc(-c2cccc(Cl)c2Cl)c(N)n1` [Compound 65, (2S,4R)-Methyl 1-(5-amino-6-(2,3-dichlorophenyl)-1,2,4-triazin-3-yl)-4-hydroxypyrrolidine-2-carboxylate] the “pharmacokinetics” value [1] was “most favorable pharmacokinetics” and the “exposure after oral dosing” value [1] was “best exposure after oral dosing”.

`CN(CCOCCNc1cnc(-c2cccc(Cl)c2Cl)c(N)n1)CC(N)=O` [Compound 191, 2-((2-(2-((6-amino-5-(2,3-dichlorophenyl)pyrazin-2-yl)amino)ethoxy)ethyl)-(methyl)amino)acetamide] gave an IC50 [2, 4] of 244 µM and an IC50 [2, 5] greater than 200 µM.

`COC[C@@H](O)CNC1CN(c2nnc(-c3cccc(Cl)c3Cl)c(N)n2)C1` [Compound 163, (S)-1-((1-(5-amino-6-(2,3-dichlorophenyl)-1,2,4-triazin-3-yl)azetidin-3-yl)amino)-3-methoxypropan-2-ol] showed an IC50 [2, 4] greater than 300 µM and an IC50 [2, 5] greater than 200 µM.
